Patent US11504425B2, “Amphiphilic oligodeoxynucleotide conjugates as adjuvant enhancers” (WAYNE STATE UNIVERSITY, priority 2019, dated 2022)

Columns and labels:
[1] = molecular target: T1, mouse TLR8 (mTLR8) (Mus musculus, UniProt P58682); assay: HEK mTLR8 reporter cells NF-κB/SEAP; type: cell-based; details: ligands at indicated concentrations + 1 μM ODN, 24 h
T1 construct: host or cells: HEK-Blue-mTLR8 (HEK293)
T1 sequence (P58682 24-1032): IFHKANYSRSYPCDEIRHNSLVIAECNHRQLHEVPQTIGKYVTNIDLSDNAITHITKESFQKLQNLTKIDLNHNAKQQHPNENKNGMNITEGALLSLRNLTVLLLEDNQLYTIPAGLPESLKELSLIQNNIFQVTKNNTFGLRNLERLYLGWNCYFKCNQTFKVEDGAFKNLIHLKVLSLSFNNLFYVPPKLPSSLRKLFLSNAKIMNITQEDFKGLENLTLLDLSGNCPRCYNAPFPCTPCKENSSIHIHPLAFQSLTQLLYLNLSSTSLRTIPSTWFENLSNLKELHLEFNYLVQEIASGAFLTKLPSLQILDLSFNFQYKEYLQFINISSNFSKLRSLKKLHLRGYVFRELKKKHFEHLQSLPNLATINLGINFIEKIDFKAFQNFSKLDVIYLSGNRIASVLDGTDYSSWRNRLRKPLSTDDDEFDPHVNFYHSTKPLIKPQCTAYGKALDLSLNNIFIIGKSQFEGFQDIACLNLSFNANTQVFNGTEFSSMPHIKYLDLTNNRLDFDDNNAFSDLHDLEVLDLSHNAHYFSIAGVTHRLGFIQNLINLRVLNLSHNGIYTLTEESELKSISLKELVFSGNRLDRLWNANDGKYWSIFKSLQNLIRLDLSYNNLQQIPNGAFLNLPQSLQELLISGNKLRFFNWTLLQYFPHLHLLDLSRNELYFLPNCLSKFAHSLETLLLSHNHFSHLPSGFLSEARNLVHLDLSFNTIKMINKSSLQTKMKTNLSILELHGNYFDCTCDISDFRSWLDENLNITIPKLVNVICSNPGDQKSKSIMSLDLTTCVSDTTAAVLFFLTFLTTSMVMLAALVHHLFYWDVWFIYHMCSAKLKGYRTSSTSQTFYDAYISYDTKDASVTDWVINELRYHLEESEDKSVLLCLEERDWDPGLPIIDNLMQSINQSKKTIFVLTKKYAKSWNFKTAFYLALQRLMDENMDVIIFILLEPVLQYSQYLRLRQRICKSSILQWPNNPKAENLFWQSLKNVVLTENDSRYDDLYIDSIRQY
Procedure: HEK-Blue™-mTLR7, mTLR8, hTLR7, hTLR8, and RAW-Blue™ cells were purchased from InvivoGen and were used to evaluate bioactivities of lipo ODNs and TLR 7/8 ligands in vitro. All these cell lines were cultured with DMEM supplemented with 10% FBS, 1% P/S and 100 μg/mL Normocin at 37° C. with 5% CO2. […] After incubating for 24 h, SEAP levels were quantified by developing supernatants with QuantiBlue™ substrate for 1 h and reading absorption at 620 nm, following manufacturer's instructions.
Raw Blue cells which respond to both murine TLR-7 and TLR-8 are also included to assess the overall modulatory effect. half-maximal effective concentration (EC50) and potency of several classic TLR7/8 ligands were evaluated in murine TLR7 and TLR8 reporter cells.

[2] = system: Raw-Blue reporter cells; assay: Cellular uptake and confocal imaging in Raw-Blue cells; type: cell-based, murine
Procedure: DC 2.4 cells were cultured with RPMI-1640 supplemented with 10% FBS and 1% P/S; Raw-Blue cells were cultured as previously described. […] After incubation, cells were washed twice with 1×PBS by centrifuge at 800×g for 5 min prior to flow cytometry quantification. To visualize in vitro cellular uptake, DC 2.4 cells or Raw-Blue cells were cultured and incubated under the same experimental conditions and were subjected to confocal imaging by Zeiss LSM 510 microscope. […] Inhibitors: 5 μg/mL Filipin; 50 μM EIPA; 300 mM sucrose were tested.

[3] = system: Murine splenocytes; assay: Cytokine secretion by murine splenocytes (ELISA); type: cell-based, mice; details: 2 μM IMQ + 1 μM ODN, 24 h
Procedure: Spleens were freshly collected from mice and were cut into small pieces. A plunger end of a syringe was used to further disassemble spleen tissues into single cells. The cell suspension was subsequently filtered and washed. Lysing buffer was utilized to remove excessive red blood cells. After two washes, 95% viability of splenocytes was confirmed by trypan blue. Splenocytes were resuspended in RPMI-1640 supplemented with 10% FBS and 1% P/S. Splenocytes were seeded at 1×10^6 cells/ml in 200 μL in a 96-well plate.
Supernatants collected from splenocytes suspension or human PBMC suspension after incubation were separately analyzed for IL-6, IL-12p40, TNF-α, and IFN-α by ELISA following manufacturer's instructions.

Q: What does the source list for 5′-TTTTTTTTTTTTTTTTTTTT-3′ [T20]?
A: mTLR8 stimulation by IMQ, CL075, R848 in the presence of the ODN [1]: increased the potency of TLR-8 stimulation; colocalization with lysosomes ([2]; 1 μM FAM-labeled ODN, FBS-supplemented and FBS-free, LysoTracker Red): colocalized with lysosomes regardless of the presence of FBS; effect on cellular uptake of FITC-labeled IMDQ ([2]; 2 μM FITC-IMDQ + 1 μM ODN): neither T20 nor lipo T20 increased cellular uptake; IFN-α production induced by IMQ [3]: decreased the production of IFN-α; IL-6 production [3]: significantly lower level of pro-inflammatory cytokines compared with IMQ alone; IL-12p40 production [3]: significantly lower level of pro-inflammatory cytokines compared with IMQ alone; TNF-α production [3]: significantly lower level of pro-inflammatory cytokines compared with IMQ alone
